Structures can show the parent of a compound that is named as a salt.
How the values were obtained:
HCT116 [1] = settings: 72 h
In short: (§1)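 HCT116 cells went into 1536-well plates at 250 per well. CellTiter-Glo luminescence was expressed relative to vehicle (0%) and positive control (-100%) and then pattern-corrected. Both IC50 and maximal efficacy were taken from four-parameter Hill fits.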

HCT116 [2] = test: efficacy (maximum % inhibition of viability vs DMSO); higher = more cytotoxic; settings: 72 h
In short: as §1

| IC50 cell viability (HCT116 [1]; ICRF193 0 nM) [µM] | IC50 cell viability (HCT116 [1]; ICRF193 200 nM) [µM] | Structure (SMILES) | efficacy (HCT116 [2]; ICRF193 0 nM) [%] | efficacy (HCT116 [2]; ICRF193 200 nM) [%] |
| --- | --- | --- | --- | --- |
| 18.3 | 18.3 | CCOC(=O)C1=C(C)NC(C)=C(C(=O)OC)C1c1cccc(Cl)c1Cl (centres undefined) [Felodipine] | 47.4 | 52 |
| 18.3 | 18.3 | CN1CCN(CCCN2c3ccccc3Sc3ccc(C(F)(F)F)cc32)CC1 [Fluoperazine dihydrochloride] | 92.3 | 94.5 |
| 29.1 | 20.6 | OCCN1CCN(CCCN2c3ccccc3Sc3ccc(C(F)(F)F)cc32)CC1 [Fluphenazine hydrochloride] | 110 | 104 |
| 22.4 | 35.5 | CC(CN1c2ccccc2Sc2ccc(S(=O)(=O)N(C)C)cc21)N(C)C (centres undefined) [Fonazine] | 56 | 70.3 |
| 20.6 | 29.1 | COc1cc2ncnc(Nc3ccc(F)c(Cl)c3)c2cc1OCCCN1CCOCC1 [Gefitinib] | 86.4 | 98.2 |
| > 45.8 | 16.4 | O=c1c(-c2ccc(O)cc2)coc2cc(O)cc(O)c12 [Genistein] |  | 42.9 |
| 0.183 | > 45.8 | CC[C@@]1(O)C(=O)OCc2c1cc1n(c2=O)Cc2c-1nc1ccccc1c2/C=N/OC(C)(C)C [Gimatecan] | 48.8 |  |
| 18.3 | 10.3 | CN(C)c1ccc(C(=C2C=CC(=[N+](C)C)C=C2)c2c(O)c(S(=O)(=O)[O-])cc3cc(S(=O)(=O)O)ccc23)cc1 [Green S] | 93.6 | 79.5 |
| 23.1 | 20.6 | CCCCN(CCCC)CCC(O)c1cc2c(Cl)cc(Cl)cc2c2cc(C(F)(F)F)ccc12 (centres undefined) [Halofantrine] | 66.9 | 87.4 |
| 2.59 | 6.51 | Oc1c(Cl)cc(Cl)c(Cl)c1Cc1c(O)c(Cl)cc(Cl)c1Cl [Hexachlorophene] | 82.5 | 45.6 |
| 16.4 | 20.6 | CC[C@H](c1ccc(O)cc1)[C@@H](CC)c1ccc(O)cc1 [Hexestrol] | 69.4 | 64.6 |
| 1.64 | 0.58 | CC(=O)[C@]1(O)Cc2c(O)c3c(c(O)c2[C@@H](O[C@H]2C[C@H](N)[C@H](O)[C@H](C)O2)C1)C(=O)c1ccccc1C3=O [Idarubicin hydrochloride] | 80.9 | 78.8 |
| > 45.8 | 29.1 | CC[C@H](Nc1ncnc2[nH]cnc12)c1nc2cccc(F)c2c(=O)n1-c1ccccc1 [Idelalisib] |  | 42.6 |
| > 45.8 | 23.1 | COc1cc(C(C)=O)ccc1OCCCN1CCC(c2noc3cc(F)ccc23)CC1 [Iloperidone] |  | 49.6 |
| > 45.8 | 29.1 | C=CCOC(Cn1ccnc1)c1ccc(Cl)cc1Cl (centres undefined) [Imazalil sulfate] |  | 44.8 |
| > 45.8 | 13 | CN(C)CCCN1c2ccccc2CCc2ccccc21 [Imipramine] |  | 40.6 |
| 18.3 | 20.6 | CCc1cc2c(cc1CC)CC(NC[C@H](O)c1ccc(O)c3[nH]c(=O)ccc13)C2 [Indacaterol (maleate)] | 82.9 | 91.6 |
| 13 | 10.3 | Oc1c(I)cc(I)c2cccnc12 [Iodoquinol] | 84.8 | 91.7 |
| 13 | 23.1 | CCc1c2c(nc3ccc(OC(=O)N4CCC(N5CCCCC5)CC4)cc13)-c1cc3c(c(=O)n1C2)COC(=O)[C@]3(O)CC [Irinotecan] | 79.8 | 102 |
| > 45.8 | 8.2 | C[C@@H](c1nc(-c2ccc(C#N)cc2)cs1)[C@](O)(Cn1cncn1)c1cc(F)ccc1F [Isavuconazole] |  | 45.8 |
| 25.9 | 18.3 | Clc1ccc(C(Cn2ccnc2)OCc2c(Cl)cccc2Cl)c(Cl)c1 (centres undefined) [Isoconazole nitrate] | 87.5 | 82.6 |
| 29.1 | 18.3 | CCN(CC)c1ccc(C(=C2C=CC(=[N+](CC)CC)C=C2)c2cc(S(=O)(=O)O)ccc2S(=O)(=O)[O-])cc1 [Isosulfan blue] | 76.5 | 78.9 |
| 18.3 | 18.3 | CC(C)(C)c1cc(C(C)(C)C)c(NC(=O)c2c[nH]c3ccccc3c2=O)cc1O [Ivacaftor] | 96.4 | 98.6 |
| 0.0651 | 0.058 | CC(C)C[C@H](NC(=O)CNC(=O)c1cc(Cl)ccc1Cl)B(O)O [Ixazomib] | 92.8 | 92.6 |
| > 45.8 | 13 | CC(=O)N1CCN(c2ccc(OCC3COC(Cn4ccnc4)(c4ccc(Cl)cc4Cl)O3)cc2)CC1 (centres undefined) [Ketoconazole] |  | 55.8 |
| 11.6 | 16.4 | CCOC(=O)[C@@H](N)Cc1ccc(-c2cc(O[C@H](c3ccc(Cl)cc3-n3ccc(C)n3)C(F)(F)F)nc(N)n2)cc1 [LX1606 (Hippurate)] | 64.7 | 102 |

More lines, now with the values behind:

| Structure (SMILES) | IC50 cell viability (HCT116 [1]; ICRF193 0 nM) [µM] | IC50 cell viability (HCT116 [1]; ICRF193 200 nM) [µM] | efficacy (HCT116 [2]; ICRF193 0 nM) [%] | efficacy (HCT116 [2]; ICRF193 200 nM) [%] |
| --- | --- | --- | --- | --- |
| C=CC[C@@H]1/C=C(\C)C[C@H](C)C[C@H](OC)[C@H]2O[C@@](O)(C(=O)C(=O)N3CCCC[C@H]3C(=O)O[C@H](/C(C)=C/[C@@H]3CC[C@@H](O)[C@H](OC)C3)[C@H](C)[C@@H](O)CC1=O)[C@H](C)C[C@@H]2OC [FK-506] | 6.51 | 4.61 | 78.2 | 45.5 |
| C=C1/C(=C\C=C2/CCC[C@]3(C)[C@@H]([C@H](C)CCCC(O)(C(F)(F)F)C(F)(F)F)CC[C@@H]23)C[C@@H](O)C[C@@H]1O [Falecalcitriol] | 29.1 | 23.1 | 68.9 | 96.5 |
| CCc1c(Cl)c(O)c(Cl)c(O)c1C(=O)O[C@H]1[C@H](O)[C@H](OC)[C@H](OC/C2=C\C=C\C[C@H](O)/C(C)=C/[C@H](CC)[C@@H](O[C@@H]3OC(C)(C)[C@@H](OC(=O)C(C)C)[C@H](O)[C@@H]3O)/C(C)=C/C(C)=C/C[C@@H]([C@@H](C)O)OC2=O)O[C@@H]1C [Fidaxomicin] | 20.6 | 20.6 | 103 | 53.2 |
| N#Cc1c(N2C[C@@H]3NCCO[C@H]3C2)c(F)cc2c(=O)c(C(=O)O)cn(C3CC3)c12 [Finafloxacin] | > 45.8 | 18.3 |  | 72.2 |
| CCCCCCCCc1ccc(CCC(N)(CO)CO)cc1 [Fingolimod hydrochloride] | 29.1 | 20.6 | 108 | 100 |
| O=c1[nH]c(=O)n([C@H]2C[C@H](O)[C@@H](CO)O2)cc1F [Floxuridine] | 2.91 | 1.16 | 49.1 | 43 |
| Fc1ccc(C(c2ccc(F)cc2)N2CCN(C/C=C/c3ccccc3)CC2)cc1 [Flunarizine] | 20.6 | 18.3 | 109 | 80 |
| O=c1[nH]cc(F)c(=O)[nH]1 [Fluorouracil] | 10.3 | 20.6 | 59.5 | 55.4 |
| CCCCCCCCCC(=O)OCCN1CCN(CCCN2c3ccccc3Sc3ccc(C(F)(F)F)cc32)CC1 [Fluphenazine decanoate dihydrochloride] | 20.6 | 20.6 | 81 | 99.6 |
| Cc1cc(C2=NOC(c3cc(Cl)cc(Cl)c3)(C(F)(F)F)C2)ccc1C(=O)NCC(=O)NCC(F)(F)F (centres undefined) [Fluralaner] | 18.3 | 29.1 | 96.5 | 104 |
| C[C@@H]1C[C@H]2[C@@H]3C[C@H](F)C4=CC(=O)C=C[C@]4(C)[C@@]3(F)[C@@H](O)C[C@]2(C)[C@@]1(OC(=O)c1ccco1)C(=O)SCF [Fluticasone furoate] | 29.1 | > 45.8 | 83.8 |  |
| C[C@]12Cc3nonc3C[C@@H]1CC[C@@H]1[C@@H]2CC[C@@]2(C)[C@H]1CC[C@]2(C)O [Furazabol] | 18.3 | 23.1 | 46.7 | 51.4 |
| CC/N=C(\NCC)NCCCC[C@H](NC(=O)[C@H](CC(C)C)NC(=O)[C@@H](CCCCN/C(=N/CC)NCC)NC(=O)[C@H](Cc1ccc(O)cc1)NC(=O)[C@H](CO)NC(=O)[C@@H](Cc1cccnc1)NC(=O)[C@@H](Cc1ccc(Cl)cc1)NC(=O)[C@@H](Cc1ccc2ccccc2c1)NC(C)=O)C(=O)N1CCC[C@H]1C(=O)N[C@H](C)C(N)=O [Ganirelix] | 4.61 | 5.17 | 80.9 | 82.7 |
| Nc1ccn([C@@H]2O[C@H](CO)[C@@H](O)C2(F)F)c(=O)n1 [Gemcitabine] | 0.092 | 0.0461 | 53.5 | 56 |
| C#C[C@]1(O)CC[C@H]2[C@@H]3CCC4=CC(=O)CCC4=C3C=C[C@@]21CC [Gestrinone] | 25.9 | > 45.8 | 56.7 |  |
| N[C@@H](CCC(=O)N[C@@H](CS)C(=O)NCC(=O)O)C(=O)O [Glutathione] | > 45.8 | 3.18 |  | 79.8 |
| COC1=CC(=O)C[C@@H](C)[C@]12Oc1c(Cl)c(OC)cc(OC)c1C2=O [Griseofulvin] | 29.1 | 20.6 | 66.1 | 65 |
| N=C(N)N/N=C/c1c(Cl)cccc1Cl [Guanabenz] | 23.1 | > 45.8 | 45.5 |  |
| Clc1cc(Cl)c(OCC#CI)cc1Cl [Haloprogin] | 25.9 | 20.6 | 89.7 | 93.8 |
| CCCCCCCCCCCCCCCC[N+](C)(C)C [Hexadecyltrimethylammonium bromide] | 5.8 | 7.3 | 103 | 91.6 |
| CN1CCCN(C(c2ccccc2)c2ccc(Cl)cc2)CC1 (centres undefined) [Homochlorcyclizine] | 20.6 | 29.1 | 71.7 | 84.3 |
| CCCCCC(=O)O[C@]1(C(C)=O)CC[C@H]2[C@@H]3CCC4=CC(=O)CC[C@]4(C)[C@H]3CC[C@@]21C [Hydroxyprogesterone caproate] | > 45.8 | 16.4 |  | 56.4 |
| CC1(C)C(/C=C/C=C/C=C/C=C2\N(CCCCS(=O)(=O)O)c3ccc4ccccc4c3C2(C)C)=[N+](CCCCS(=O)(=O)[O-])c2ccc3ccccc3c21 [INDOCYANINE GREEN] | 29.1 | > 45.8 | 43.6 |  |
| COC1=C(OC)C(=O)C(CCCCCCCCCCO)=C(C)C1=O [Idebenone] | 20.6 | 20.6 | 49.5 | 56.6 |
| C/C=C(/C)C(=O)O[C@H]1C(C)=C[C@]23C(=O)[C@@H](C=C(CO)[C@@H](O)[C@]12O)[C@H]1[C@@H](C[C@H]3C)C1(C)C [Ingenol mebutate] | > 45.8 | 23.1 |  | 60.3 |
| Cc1nnc2n1-c1sc(CCc3ccc(CC(C)C)cc3)cc1C(c1ccccc1Cl)=NC2C (centres undefined) [Israpafant] | 16.4 | 23.1 | 98.7 | 114 |
| C/C(=C\c1csc(C)n1)[C@@H]1C[C@@H]2O[C@]2(C)CCC[C@H](C)[C@H](O)[C@@H](C)C(=O)C(C)(C)[C@@H](O)CC(=O)N1 [Ixabepilone] | 0.92 | > 45.8 | 72.5 |  |
| CCOC(=O)C1=C(C)NC(C)=C(C(=O)OCC)C1c1ccccc1/C=C/C(=O)OC(C)(C)C [Lacidipine] | 18.3 | 20.6 | 94 | 108 |
